This passage reports Ki results from patent publication US6403633B2, “Heteroaryl amidines, methylamidines and guanidines, and use thereof as protease inhibitors” (3-Dimensional Pharmaceuticals, Inc., priority 1998, dated 2002).

A word on the Ki: it is the dissociation constant of the complex between target and ligand, obtained from inhibition or displacement. Higher therefore signals weaker binding.

Where a name gives a salt, the structure may show the parent alone.

Holding throughout (type): biochemical
The target in one assay is T1, C1S (Homo sapiens, UniProt P09871).
T1 sequence (P09871 16-688): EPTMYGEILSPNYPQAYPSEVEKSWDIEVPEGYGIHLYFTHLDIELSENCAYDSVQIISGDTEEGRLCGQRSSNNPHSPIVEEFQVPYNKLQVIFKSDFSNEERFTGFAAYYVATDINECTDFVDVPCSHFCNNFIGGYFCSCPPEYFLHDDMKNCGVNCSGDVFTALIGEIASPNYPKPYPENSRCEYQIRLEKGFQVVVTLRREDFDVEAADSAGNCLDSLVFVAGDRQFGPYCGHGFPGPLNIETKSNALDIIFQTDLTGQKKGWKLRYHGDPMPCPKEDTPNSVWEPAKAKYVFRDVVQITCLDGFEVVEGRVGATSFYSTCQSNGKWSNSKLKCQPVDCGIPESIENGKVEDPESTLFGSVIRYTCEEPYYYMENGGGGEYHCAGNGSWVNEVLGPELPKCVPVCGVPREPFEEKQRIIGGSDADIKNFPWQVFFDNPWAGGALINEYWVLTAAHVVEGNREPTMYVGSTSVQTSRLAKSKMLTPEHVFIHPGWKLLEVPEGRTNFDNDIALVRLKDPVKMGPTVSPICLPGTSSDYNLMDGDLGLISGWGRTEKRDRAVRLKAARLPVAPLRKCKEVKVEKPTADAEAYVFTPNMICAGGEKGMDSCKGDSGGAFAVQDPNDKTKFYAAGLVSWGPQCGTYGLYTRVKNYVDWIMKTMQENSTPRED
Briefly: In vitro inhibition of purified enzymes, Ki determination: C1S. Conditions: no enzyme-specific conditions printed. The source says: (§1) Human α-thrombin, human factor Xa and human plasmin were obtained from Enzyme Research Laboratories (South Bend, Ind.). Bovine α-chymotrypsin (Sigma C4129), bovine trypsin (Sigma T8642) and human kidney cell urokinase (Sigma U5004) were obtained from Sigma. Human leukocyte elastase was obtained from Elastin Products (Pacific, Mo.). Ki Determinations: All assays are based on the ability of the test compound to inhibit the enzyme catalyzed hydrolysis of a peptide p-nitroanilide substrate. […] The final concentrations for each of the substrates is listed below. In general, substrate concentrations are lower than the experimentally determined value for Km. […]
(§2) In a typical Ki determination, into each well of a 96 well plate is pipetted 280 μL of substrate solution, 10 μL of test compound solution, and the plate allowed to thermally equilibrate at 37° C. in a Molecular Devices plate reader for >15 minutes. Reactions were initiated by the addition of a 10 μL aliquot of enzyme and the absorbance increase at 405 nm is recorded for 15 minutes. […] The ratio of the velocity (rate of change in absorbance as a function of time) for a sample containing no test compound is divided by the velocity of a sample containing test compound, and is plotted as a function of test compound concentration. The data are fit to a linear regression, and the value of the slope of the line calculated. […]

The next assay addresses T2, human plasmin (Homo sapiens, UniProt P00747).
T2 construct: purchased Enzyme Research Laboratories
In words: In vitro inhibition of purified enzymes, Ki determination: plasmin. Conditions: substrate N-p-Tosyl-Gly-Pro-Lys-p-nitroanilide 37 μM, [Plasmin]=8 nM, pH 7.5, 37° C. The source says: (§3) Reagents: All buffer salts were obtained from Sigma Chemical Company (St. Louis, Mo.), and were of the highest purity available. The enzyme substrates, N-benzoyl-Phe-Val-Arg-p-nitroanilide (Sigma B7632), N-benzoyl-Ile-Glu-Gly-Arg-p-nitroanilide hydrochloride (Sigma B2291), N-p-tosyl-Gly-Pro-Lys-p-nitroanilide (Sigma T6140), N-succinyl-Ala-Ala-Pro-Phe-p-nitroanilide (Sigma S7388) and N-CBZ-Val-Gly-Arg-p-nitroanilide (Sigma C7271) were obtained from Sigma. N-Succinyl-Ala-Ala-Pro-Arg-p-nitroanilide (BACHEM L-1720) and N-succinyl-Ala-Ala-Pro-Val-p-nitroanilide (BACHEM L-1770) were obtained from BACHEM (King of Prussia, Pa).
(§4) Human α-thrombin, human factor Xa and human plasmin were obtained from Enzyme Research Laboratories (South Bend, Ind.). […] In general, substrate concentrations are lower than the experimentally determined value for Km. […]
(§5) In a typical Ki determination, into each well of a 96 well plate is pipetted 280 μL of substrate solution, 10 μL of test compound solution, and the plate allowed to thermally equilibrate at 37° C. in a Molecular Devices plate reader for >15 minutes. Reactions were initiated by the addition of a 10 μL aliquot of enzyme and the absorbance increase at 405 nm is recorded for 15 minutes. […] The data are fit to a linear regression, and the value of the slope of the line calculated. The inverse of the slope is the experimentally determined Ki value. […]

The next assay has as its target tPA (Homo sapiens, UniProt P00750). Briefly: In vitro inhibition of purified enzymes, Ki determination: tPA. Conditions: no enzyme-specific conditions printed.
From the text: as §1, §2

In another assay the target is T3, Bovine α-chymotrypsin (Bos taurus, UniProt P00766).
T3 construct: purchased Sigma C4129
Briefly: In vitro inhibition of purified enzymes, Ki determination: chymotrypsin. Conditions: substrate N-succinyl-Ala-Ala-Pro-Phe-p-nitroanilide 14 μM, [Chymotrypsin]=2.7 nM, pH 7.5, 37° C.
From the text: as §3, §4, §5

The next assay has as its target T4, human factor Xa (Homo sapiens, UniProt P00742).
T4 construct: purchased Enzyme Research Laboratories
In words: In vitro inhibition of purified enzymes, Ki determination: Factor Xa. Conditions: substrate N-benzoyl-Ile-Glu-Gly-Arg-p-nitroanilide hydrochloride 51 μM, [FXa]=10 nM, pH 7.5, 37° C.
From the text: as §3, §4, §5

T4 sequence (P00742 235-488 limits assumed): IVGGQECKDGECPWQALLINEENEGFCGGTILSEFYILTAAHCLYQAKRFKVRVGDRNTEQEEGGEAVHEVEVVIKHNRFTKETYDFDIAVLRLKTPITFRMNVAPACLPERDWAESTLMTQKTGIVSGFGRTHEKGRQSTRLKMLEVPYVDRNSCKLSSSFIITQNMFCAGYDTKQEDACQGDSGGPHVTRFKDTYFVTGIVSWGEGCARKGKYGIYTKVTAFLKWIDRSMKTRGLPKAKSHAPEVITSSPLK
T4 sequence (P00742 41-179 partner limits assumed): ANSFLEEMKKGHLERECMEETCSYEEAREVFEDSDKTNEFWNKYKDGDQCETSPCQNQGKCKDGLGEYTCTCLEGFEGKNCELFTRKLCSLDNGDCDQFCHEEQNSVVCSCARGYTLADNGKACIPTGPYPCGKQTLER
T2 sequence (P00747 581-810 limits assumed): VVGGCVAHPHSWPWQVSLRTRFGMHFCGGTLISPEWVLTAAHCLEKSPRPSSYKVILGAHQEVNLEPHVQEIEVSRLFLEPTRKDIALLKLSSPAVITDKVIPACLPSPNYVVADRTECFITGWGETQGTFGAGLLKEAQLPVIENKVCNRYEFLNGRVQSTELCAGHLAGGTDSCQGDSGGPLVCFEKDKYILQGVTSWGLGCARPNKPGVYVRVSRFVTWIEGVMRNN
T2 sequence (P00747 97-580 partner limits assumed): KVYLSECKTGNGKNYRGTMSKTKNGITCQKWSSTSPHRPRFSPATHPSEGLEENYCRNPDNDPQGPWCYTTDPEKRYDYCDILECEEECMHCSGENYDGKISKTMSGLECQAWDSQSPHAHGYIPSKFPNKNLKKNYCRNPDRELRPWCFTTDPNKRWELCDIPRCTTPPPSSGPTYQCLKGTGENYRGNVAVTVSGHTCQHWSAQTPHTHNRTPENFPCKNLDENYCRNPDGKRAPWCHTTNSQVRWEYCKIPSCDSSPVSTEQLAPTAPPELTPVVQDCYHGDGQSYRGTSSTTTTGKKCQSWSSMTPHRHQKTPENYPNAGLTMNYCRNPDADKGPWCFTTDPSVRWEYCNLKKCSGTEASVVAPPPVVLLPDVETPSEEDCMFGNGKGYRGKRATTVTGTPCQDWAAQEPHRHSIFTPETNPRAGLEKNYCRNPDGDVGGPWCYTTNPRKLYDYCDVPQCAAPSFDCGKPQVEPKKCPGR
Sequence of tPA (P00750 36-562, species assumed): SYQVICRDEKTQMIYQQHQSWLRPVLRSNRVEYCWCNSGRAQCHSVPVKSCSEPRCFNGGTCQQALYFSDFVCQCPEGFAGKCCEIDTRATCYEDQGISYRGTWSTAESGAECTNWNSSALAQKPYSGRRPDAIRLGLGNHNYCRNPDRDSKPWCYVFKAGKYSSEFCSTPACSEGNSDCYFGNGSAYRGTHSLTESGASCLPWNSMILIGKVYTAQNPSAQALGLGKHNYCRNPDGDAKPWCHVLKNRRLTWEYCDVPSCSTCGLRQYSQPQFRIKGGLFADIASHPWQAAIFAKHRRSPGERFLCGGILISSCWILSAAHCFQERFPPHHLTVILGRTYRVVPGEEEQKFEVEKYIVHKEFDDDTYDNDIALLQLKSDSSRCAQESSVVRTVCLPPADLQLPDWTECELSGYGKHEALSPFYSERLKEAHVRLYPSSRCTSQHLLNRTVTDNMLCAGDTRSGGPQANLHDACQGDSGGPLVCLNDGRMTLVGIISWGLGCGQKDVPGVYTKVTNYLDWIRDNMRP

“4-[Bis(phenylsulfonyl)amino]-5-methylthiophene-2-carboxamidine [Example 283]” displayed an inhibitory constant (Ki) on C1S of 0.94 µM.
On human plasmin, `CSc1sc(C(=N)N)cc1-c1nc(-c2ccc3c(c2)OCCO3)cs1` [Example 12, 4-[4-(3,4-Ethylenedioxyphenyl)thiazol-2-yl]-5-methylthiothiophene-2-carboxamidine hydrochloride] gave an inhibition constant Ki of 7.31 µM.
On tPA, `CSc1sc(C(=N)N)cc1-c1nc(-c2ccc(Cl)cc2)cs1` [Example 1, 4-[4-(4-chlorophenyl)(1,3-thiazol-2-yl)]-5-methylthiothiophene-2-carboxamidine] displayed a Ki of 9.49 µM.
In the case of `CSc1sc(C(=N)N)cc1-c1nc(-c2ccc([N+](=O)[O-])cc2)cs1` [Example 11, 5-Methylthio-4-[4-(4-nitrophenyl)(1,3-thiazol-2-yl)]thiophene-2-carboxamidine hydrochloride], the inhibitory constant (Ki) at Bovine α-chymotrypsin worked out at 4.9 µM.
On to `CSc1sc(C(N)=NC#N)cc1-c1nc(-c2ccccc2)cs1` [Example 94, 3-Amino-2-aza-3-[5-methylthio-4-(4-phenyl(1,3-thiazol-2-yl))(2-thienyl)]prop-2-enenitrile], for which the Ki at human factor Xa was found to be 2.73 µM.
Consider `CSc1sc(C(=N)N)cc1-c1nc(-c2sc3ccccc3c2Cl)cs1` [Example 119, 4-[4-(3-chlorobenzo[b]thiophen-2-yl)(1,3-thiazol-2-yl)]-5-methylthiothiophene-2-carboxamidine hydrochloride], for which the affinity at human factor Xa corresponds to a Ki of 3 µM.
